Experimental data taken from US8703704B2, “Method for growing, restoring and regenerating hair” (priority 2009, dated 2014).
“Also recorded” adds a separate entry of the source.

Key:
[1] = test system: cardiac muscle of a patient suffering from the dilated cardiomyopathy; experiment: Intermittent intravenous ANP in a patient with dilated cardiomyopathy; format: in vivo, human
Method: A small quantity of ANP was administered intermittently, namely once for a week by 1 mg over 4 hours by means of intravenous injection to a patient diagnosed as suffering from the dilated cardiomyopathy who was […]. The contraction percentage was 19% before start of administration of ANP, but was improved up to 40% in 6 months, and also the systemic arterial capacity, which was NYHA IV before start of the treatment, was improved up to NYHA II. […] By continuing administration of ANP once a week for two years, the […] was improved up to NYHA I, and although the patient's prognosis was regarded as 6 months by the conventional therapy, it is now determined that the patient will be able to enjoy the ordinary domestic life for 10 years or more. The patient's cardiac muscle thickness and contractile activity are at present quite good.

[2] = test system: Cyclin D1; experiment: RT-PCR expression of Cyclin D1 in HaCat; format: cell-based, human; conditions: 1 μM
Method: (§1) Human normal cornified cell stock HaCat was seeded in a 3.5 cm falcon flat bottom […] dish at the seeding rate of 2×10^4 cells/dish. In 3 days, ANP was added by 1 μM, and RNA was recovered using RNeasy plus (QUIAGEN) from the cells at the time points of 0 minute, 30 minutes, and 4 hours after start of the treatment. cDNA was synthesized using Superscript III (Invitrogen) from 0.2 μg of RNA, and the synthesized cDNA was used as a template for PCR. Using GAPDH as an internal control, the sample was subjected to PCR and then agarose electrophoresis, then stained by Cyber Safe (Invitrogen), the electrophoresis image was photographed on a UV transilluminator with a digital camera (Olympus C5060WZ), and thickness of each band was measured with the Image J (for densitometer analysis). […] Expression of BMP-2 increased by 1.5 times as compared to samples not treated in 4 hours after treatment with ANP.

[3] = test system: wounds caused by the surgical operation (laser removal of lentigo); experiment: ANP applied to facial wounds caused by laser surgery (left half treated, right half as comparison); format: in vivo, human
Method: In a patient who received operation for removing lentigo on the entire facial surface by the laser method, ANP was administered at a dose of 0.1 to 5 μg (with an isotonic aqueous solution at a dose of 0.01 ml to 0.5 ml) twice a day to wounds caused by the surgical operation or areas around the wounds on the left half of the patient's face, and the result was compared to wounds on the right side half of the patient's face. […] Furthermore, tension of skin was observed more clearly in the left side facial area as a whole as compared to that in the right side, and smoothness of the facial skin in the left side was improved.

[4] = test system: Human normal cornified cell stock HaCat; experiment: Colony formation of HaCat in drops; format: cell-based; conditions: 1 μM ANP
Method: In the case of 10 μl drop, formation of any colony was not observed.

[5] = test system: Human normal cornified cell stock HaCat; experiment: Wound (scratch) test on confluent HaCat; format: cell-based
Method: Human normal cornified cell stock HaCat was seeded in a falcon flat bottom 6-well dish at the seeding rate of 2×10^5 cells/dish. In 3 days, the cells in the confluent state were injured with a pipetteman chip, and the cells were washed with PBS twice, and then ANP was added so that the content was 1 μM (in OptiMEM serum free). In 24 hours, behaviors of the cells were observed (FIG. 4).

[6] = test system: KRT15; experiment: RT-PCR expression of KRT15 in HaCat; format: cell-based, human; conditions: 1 μM; 30 minutes after start of treatment; transitional
Method: as §1

[7] = test system: skin of hands (cracked and rough); experiment: ANP applied on hands with cracked and rough skin; format: in vivo, human; conditions: 0.5 to 5 μg twice a day on backs and palms of both hands
Method: The ANP according to the present invention was applied on both the backs and palms of both hands of a ceramic artist who touched water and mud every day at a dose of 0.5 to 5 μg twice a day.

[8] = test system: head hairs of patients of thin hairs; experiment: ANP applied on head skin of patients of thin hairs; format: in vivo, human
Method: ANP was applied by 0.5 to 5 μg to two patients of thin hairs […], after the hairs were cleaned, twice a day (together with 0.5 ml of an isotonic aqueous solution) directly on the patients' head skin. States of pores and hairs and total state of head hairs after administration of ANP were observed and compared to those before start of administration of ANP. Observation of the states was also performed in 40 days and in 60 days after start of ANP administration for assessment. […] In 2 to 3 weeks after start of administration of ANP, it was observed that elasticity and solidity increased in total hairs on the patients' heads. In one month after start of ANP administration, the sites on each patient's head where the head skin had been visible became less visible. The retarded front line of head hairs again moved frontward, and new hairs grew up to the length of 5 to 7 mm. Furthermore, a second short hair was discovered at the side of a long grown hair. […] Black spiral hairs were observed under the pore portions. Just after the spiral hairs came out from under the head skin, the hairs kept the spiral state, but when the hairs become straight, the length was in the range from 3 to 4 mm.

For `CC[C@H](C)[C@@H]1NC(=O)[C@H](CCCNC(=N)N)NC(=O)[C@H](CC(=O)O)NC(=O)[C@H](CCSC)NC(=O)[C@H](CCCNC(=N)N)NC(=O)CNC(=O)CNC(=O)[C@H](Cc2ccccc2)NC(=O)[C@@H](NC(=O)[C@H](CO)NC(=O)[C@H](CO)NC(=O)[C@H](CCCNC(=N)N)NC(=O)[C@H](CCCNC(=N)N)NC(=O)[C@H](CC(C)C)NC(=O)[C@@H](N)CO)CSSC[C@@H](C(=O)N[C@@H](CC(N)=O)C(=O)N[C@@H](CO)C(=O)N[C@@H](Cc2ccccc2)C(=O)N[C@@H](CCCNC(=N)N)C(=O)N[C@@H](Cc2ccc(O)cc2)C(=O)O)NC(=O)CNC(=O)[C@H](CC(C)C)NC(=O)CNC(=O)[C@H](CO)NC(=O)[C@H](CCC(N)=O)NC(=O)[C@H](C)NC(=O)CNC1=O` [ANP, atrial natriuretic peptide], the contraction percentage ([1]; 1 mg i.v. over 4 hours once a week, in 6 months, 19% before start) was 40%, the “NYHA class after continued administration” value ([1]; ANP once a week for two years) was “NYHA I” and the “cardiac muscle thickness (ultrasonic diagnosis)” value ([1]; during ANP treatment) was “increased”. The NYHA functional class ([1]; in 6 months, NYHA IV before start of the treatment) was “NYHA II”, the “time the patient will be able to enjoy ordinary domestic life (prognosis)” value ([1]; prognosis was 6 months by the conventional therapy) was at least 10 years and the “expression rate of Cyclin D1 relative to the original level” value [2] was “⅓ and around ⅓”. For the same compound, the closure of wounds ([3]; 0.1 to 5 μg twice a day, one week after start, versus untreated right side) was “most of the wounds were closed”, the restoration of wounds ([3]; ANP area compared to control area / no ANP) was “advances far quickly; also recorded: more quickly restored” and the “smoothness of the facial skin” value ([3]; left (treated) side) was “improved”. The surgical traces ([3]; sites where ANP was administered) was “less remarkable”, the “reformation of subcutaneous tissue” value ([3]; treated left half versus untreated right half of face) was “clearly earlier” and the “capability of forming colonies” value [4] was “form colonies; also recorded: colonies formed”. For the same compound, the cell motility ([5]; 1 μM) was “rose”, the “behaviour of cells at wound edges” value ([5]; 1 μM in OptiMEM serum free, 24 hours) was “many rounding-like sites are observed; also recorded: rounding-like state was observed at many sites” and the “increase of expression rate of KRT15” value [6] was “about 20%”. For the same compound, the “cracked and rough skin symptoms” value [7] was “remarkably improved”, the “growth of downy hairs on the frontal region” value ([8]; 0.5 to 5 μg twice a day, one week after start) was “growth of hairs like downy hairs was observed” and the “elasticity and solidity of total hairs” value ([8]; 2 to 3 weeks after start) was “increased”. The “thickness of head hairs” value ([8]; 40 days after start) was “thickness increased” and the “visibility of head skin” value ([8]; 60 days after start) was “hardly visible”.
